Results published in patent US20140329753A1, “Angiogenic active lytic peptides” (priority 2013, published 2014).
Entries after “also recorded” stand apart in the source; their conditions may differ.

What was measured:
angiogenesis = assay: Matrigel deposit implant test for angiogenic activity (acceleration or inhibition), FGF1-induced; assay type: in vivo, mice; set-up: key to top score seen in Matrigel deposits: no + sign would yield a value of 0, as in A in FIG. 13; B in FIG. 13 would yield a score of +++; ++++: 0 to 4 plus (+) scale; conditions: for top score seen in Matrigel deposits: 0 to 4 plus (+) scale, only top level scores of the experiment
Description: Matrigel deposits were surgically implanted on both sides of 4 mice per treatment yielding a possible 8 samples per treatment. Matrigel is a polymeric substance that appears to be relatively inert in animals and it can serve as a matrix that allows experimentation in vivo on many different difficult-to-study-processes. Prior to implantation, the Matrigel was allowed to imbibe fibroblast growth factor 1 (FGF1). This protein is a powerful inducer of angiogenesis and its presence guarantees that sufficient activity will be observed within the allotted time period of the experiment. Therefore, any inhibition of angiogenesis is likely to be a real phenomenon as the experiment has been set to heavily favor the angiogenic process. Angiogenesis occurs by day 14 and beginning Day 1 (Day 0=day of implantation), mice were injected IP daily with 20 μg of peptide in 100 μl of normal saline. The animals were sacrificed on Day 14, and each Matrigel deposit divided longitudinally and fixed in 10% buffered formalin. One of the halves of each Matrigel deposit was then sectioned. Read-out for this experiment was via histology, with semi-quantitative/qualitative counting of migration of cells and their subsequent assembly of lumenal structures within the Matrigel. This method allows us to observe the full physiologic spectrum of effects, and was useful in delineating trends. […] In FIG. 13, A represents what a section of a Matrigel gel deposit looks like under the microscope soon after surgical implantation. The sample in B is derived from the control at the conclusion of the experiment. Intense activity is present with numerous cells attaching to the surface of the Matrigel. Cells begin to penetrate the deposit and organize into discrete structures that coalesce to form the beginning of tubes twisting and branching in many directions. These venules eventually connect with the system carrying blood and it is possible to see red cells and lymphocytes within them. This process is called “arborization”, derived from the fact that the angiogenic process most closely resembles the growth of roots and branches of trees. All but two of the peptide treatments looked, more or less, like B (all the peptides of Table 1 were tested). In C, a typical sample from the peptide C-1 (SEQ ID NO: 24) treatment is shown. […] Consequently, there were far fewer cells and cellular structures inside of the Matrigel. […] There were large regions of Matrigel that had no visibly associated structures and few single cells, including on the periphery, while other regions had some limited activity.
This system ranks each sample using a 0 to 4 plus (+) scale. Thus, B in FIG. 13 would yield a score of +++ while no + sign would yield a value of 0, as in A in FIG. 13. In Table 3 the data is modified to a numerical form and plotted averages are shown.

[1] = system: Feline Immunodeficiency virus FIV; assay: Peptide treatment of a lion infected with FIV (CD4+/CD8+ cell counts); assay type: in vivo; conditions: weekly 70 mg I.M injections
Description: Nasty is a male lion in North Carolina Zoological Park. He was diagnosed to suffer Feline Immunodeficiency virus FIV. FIV attacks the immune system of cats, much like the human immunodeficiency virus (HIV) attacks the immune system of human beings. FIV infects many cell types in its host, including CD4+ and CD8+T lymphocytes, B lymphocytes, and macrophages. FIV eventually leads to debilitation of the immune system in its feline hosts by the infection and exhaustion of T-helper (CD4+) cells.
Nasty was treated weekly with 70 mg I.M injections of JC15-10N.

arthritis = assay: Treatment of a patient with arthritis (x-ray of ankle joints); assay type: in vivo; conditions: 10 mg subcutaneous once a week for one month, then once a month
Protocol: A patient with arthritis was treated by subcutaneous injection of 10 mg once a week for one month and then once a month for maintenance doses. A visible indication of arthritis is calcification of joints.

tumors = assay: In vivo anti-tumor activity of injected peptide in animal tumor models
[2] = mice, 20 μg peptide IP daily, Day 14 histology

## FAKKFAKFAF [JC15-10C]
angiogenesis; [2]
  angiogenic / anti-angiogenic activity in Matrigel deposits (in words): inactive

## FAKKFAKKFK [JC15-10N]
[1]
  absolute CD4+ cell counts: stabilized the CD4+ cell counts
  absolute CD8+ cell counts: the cell counts began to rise
angiogenesis; [2]
  angiogenic / anti-angiogenic activity in Matrigel deposits (in words): possesses anti-angiogenic activity
arthritis
  calcification of the ankle joints: disappeared

## FAKKFAKKFKKF [JC15-12N]
angiogenesis
  top score seen in Matrigel deposits: ++++
angiogenesis; [2]
  angiogenic / anti-angiogenic activity in Matrigel deposits (in words): levels of activity higher than the control; also recorded: cannot exert an anti-angiogenic effect; also recorded: does not inhibit angiogenesis

## FAKKFAKKFKKFAKKFAK [JC15-18N]
angiogenesis; [2]
  angiogenic / anti-angiogenic activity in Matrigel deposits (in words): levels of activity higher than the control; also recorded: cannot exert an anti-angiogenic effect

## FAKKFAKKFKKFAKKFAKFAFAF [JC15]
tumors; a few injections over a period of several days
  effect on tumors, peptide injected directly into the tumor: tumors are permanently eliminated
tumors; systemic activity, several animal tumor models, in some cases little activity
  effect on tumors, peptide injected in a site removed from the tumor: most of the tumors also disappeared
angiogenesis; difference of mean score from Control (2.50)
  % Diff.: 4.00%
angiogenesis; mean of samples, mice, 20 μg peptide IP daily, Day 14, 0 to 4 plus scale
  angiogenic activity score, Mean: 2.60
angiogenesis; [2]
  angiogenic / anti-angiogenic activity in Matrigel deposits (in words): closer to the control; also recorded: cannot exert an anti-angiogenic effect
angiogenesis; mice, FGF1-imbibed Matrigel, 20 μg peptide IP daily, Day 14 histology, 0 to 4 plus scale, sample 1
  angiogenic activity score, Sample 1: 3
angiogenesis; mice, FGF1-imbibed Matrigel, 20 μg peptide IP daily, Day 14 histology, 0 to 4 plus scale, sample 2
  angiogenic activity score, Sample 2: 2
angiogenesis; mice, FGF1-imbibed Matrigel, 20 μg peptide IP daily, Day 14 histology, 0 to 4 plus scale, sample 3
  angiogenic activity score, Sample 3: 3
angiogenesis; mice, FGF1-imbibed Matrigel, 20 μg peptide IP daily, Day 14 histology, 0 to 4 plus scale, sample 4
  angiogenic activity score, Sample 4: 2
angiogenesis; mice, FGF1-imbibed Matrigel, 20 μg peptide IP daily, Day 14 histology, 0 to 4 plus scale, sample 5
  angiogenic activity score, Sample 5: 3

## IVRRADRAAVPIVNLKDELL [C-1]
angiogenesis; [2]
  angiogenic / anti-angiogenic activity in Matrigel deposits (in words): far fewer cellular associations; also recorded: possess anti-angiogenic activity

## KKFKKFAKKFAKFAF [JC15-15C]
angiogenesis
  top score seen in Matrigel deposits: ++++
angiogenesis; [2]
  angiogenic / anti-angiogenic activity in Matrigel deposits (in words): levels of activity higher than the control; also recorded: cannot exert an anti-angiogenic effect
